Results: PMC10434765, “Exploring the potential of propanamide-sulfonamide based drug conjugates as dual inhibitors of urease and cyclooxygenase-2: biological and their in silico studies” (Frontiers in Chemistry, 2023)
Read-outs that look alike come from different tables or passages of the source.

Tests used:
[1] = biological target: T1, jack bean urease (Canavalia ensiformis, UniProt P07374); experiment: biochemical
Description: Each tube received 400 µL of urea (20 mM) as substrate, which was then incubated for 10 min at the same temperature.
Each inhibitor’s binding mechanism was tested at various doses (0–20 µM) for kinetics investigations. […] Lineweaver Burk plots were drawn using GraphPad PRISM 7.0 to determine the values of Km (app), Vmax (app), and Ki (inhibition constant).

[2] = biological target: T1, jack bean urease; settings: for Vmax (app): maximum rate at 20 µM of inhibitor concentration; for Mode of inhibition: urea 0.5-4.0 mM, inhibitor 0-20 µM; for % inhibition of urease: value in parentheses beside IC50, n = 3, concentration not given
[3] = system: carrageenan-induced acute inflammation in mice; experiment: Carrageenan-induced paw edema anti-inflammatory study; type: in vivo; settings: 10 mg/kg intraperitoneally, n = 6
Description: As previously mentioned in our study, carrageenan-induced acute inflammation in mice was used to measure the anti-inflammatory effect ([Ahmed et al., 2018b]). Six groups of mice were formed and each group comprised six mice, the mice fasted 16 h before of induction of inflammation by injecting the phlogistic agent (carrageenan). The right hind paw of each mouse was measured before and after the 100 µL injection of the carrageenan (1% in 0.9% saline). The test substances, standard medication (indomethacin), and control (0.9% saline) were administered intraperitoneally at 10 mg/kg body weight. For 3 h, and after the 1-h interval, the thickness (mm) of the right hind paw of each mouse was measured. The difference in thickness of paw edema of control and test substance was used to determine the percentage inhibition of inflammation by the formula given below. Percentage inhibition of inflammation=Ct−CocontrolCt−Cotreated/Ct−Cocontrol×100 (2)
Where Ct and Co are the right hind paw thickness after and before carrageenan injection.

[4] = biological target: T2, COX-2 enzyme (Homo sapiens, UniProt P35354); experiment: COX-2 inhibitory assay (Cayman kit); type: biochemical; settings: n = 3
T2 construct: purchased Cayman Chemical Company, United States Item No. 760151
T2 sequence (P35354 18-604): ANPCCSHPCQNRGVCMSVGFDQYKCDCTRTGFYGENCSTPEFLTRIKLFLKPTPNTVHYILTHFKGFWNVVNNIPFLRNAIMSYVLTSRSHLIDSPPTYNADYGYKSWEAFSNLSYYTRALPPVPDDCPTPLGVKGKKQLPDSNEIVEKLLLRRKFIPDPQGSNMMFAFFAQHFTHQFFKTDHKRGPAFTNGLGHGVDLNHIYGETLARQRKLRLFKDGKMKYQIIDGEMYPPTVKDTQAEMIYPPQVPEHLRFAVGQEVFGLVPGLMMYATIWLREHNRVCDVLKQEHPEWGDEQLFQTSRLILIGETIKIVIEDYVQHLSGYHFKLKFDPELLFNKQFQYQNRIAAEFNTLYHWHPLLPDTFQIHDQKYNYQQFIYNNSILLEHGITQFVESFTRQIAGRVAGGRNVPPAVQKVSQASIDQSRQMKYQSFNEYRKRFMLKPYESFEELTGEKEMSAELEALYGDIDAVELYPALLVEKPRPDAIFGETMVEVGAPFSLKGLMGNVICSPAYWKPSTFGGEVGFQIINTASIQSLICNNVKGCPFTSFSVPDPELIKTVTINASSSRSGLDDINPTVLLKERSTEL
Description: For the initial activity assay, 150 µL buffer, 10 µL heme, and 10 µL COX-2 enzyme were mixed in a well whereas 110 µL buffer, 10 µL heme, 10 µL COX-2 enzyme, and 40 µL test inhibitor (10 µM) were mixed for inhibitory assay using 96 wells plate.

T1 sequence (P07374 whole entry, looked up): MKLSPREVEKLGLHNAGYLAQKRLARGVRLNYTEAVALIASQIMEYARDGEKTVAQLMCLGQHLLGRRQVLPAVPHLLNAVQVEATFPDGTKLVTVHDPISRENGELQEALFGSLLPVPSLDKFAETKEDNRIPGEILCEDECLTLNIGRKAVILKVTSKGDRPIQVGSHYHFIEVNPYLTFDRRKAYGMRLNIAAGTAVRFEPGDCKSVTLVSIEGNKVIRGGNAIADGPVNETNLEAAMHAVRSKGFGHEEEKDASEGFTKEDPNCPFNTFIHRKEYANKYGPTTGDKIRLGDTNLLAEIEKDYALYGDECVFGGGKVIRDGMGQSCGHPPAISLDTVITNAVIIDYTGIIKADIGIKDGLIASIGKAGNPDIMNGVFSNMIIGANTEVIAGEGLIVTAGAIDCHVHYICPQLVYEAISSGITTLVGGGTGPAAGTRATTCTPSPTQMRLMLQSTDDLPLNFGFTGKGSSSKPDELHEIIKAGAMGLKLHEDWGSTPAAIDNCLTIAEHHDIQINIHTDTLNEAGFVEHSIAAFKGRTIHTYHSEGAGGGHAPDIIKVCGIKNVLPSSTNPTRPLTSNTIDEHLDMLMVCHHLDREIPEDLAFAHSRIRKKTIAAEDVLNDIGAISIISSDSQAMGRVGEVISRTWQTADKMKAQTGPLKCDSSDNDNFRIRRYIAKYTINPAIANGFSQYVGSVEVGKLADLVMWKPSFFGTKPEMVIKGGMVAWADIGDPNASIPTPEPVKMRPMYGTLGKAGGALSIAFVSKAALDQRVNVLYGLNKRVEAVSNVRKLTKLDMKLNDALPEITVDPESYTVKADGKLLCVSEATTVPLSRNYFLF

SMILES | IC50 [1] | Ki [1] | Vmax (app) ([2]; Lineweaver Burk plot) | Mode of inhibition [2] | % inhibition of urease [2] | melting point | Paw edema in mm (mean ± SEM) ([3]; 0 h) | % inhibition of paw edema ([3]; 1 h) | Paw edema in mm (mean ± SEM) ([3]; 1 h) | % inhibition of paw edema ([3]; 2 h) | Paw edema in mm (mean ± SEM) ([3]; 2 h) | % inhibition of paw edema ([3]; 3 h) | Paw edema in mm (mean ± SEM) ([3]; 3 h) | inhibition at 10 µM [4] | IC50 ([2]; read-out: IC50 (µM), mean ± SEM, jack bean urease, n = 3, thiourea as standard) | Ki ([2]; read-out: Ki (inhibition constant), secondary Lineweaver Burk plot) | Km ([2]; read-out: Km (app), Michaelis constant at 20 µM of inhibitor concentration, Lineweaver Burk plot)
COc1ccc2cc([C@H](C)C(=O)Nc3ccc(S(N)(=O)=O)cc3)ccc2c1 [Conjugate 3, (S)-2-(6-methoxynaphthalen-2-yl)-N-(4-sulfamoylphenyl)propanamide] | 6.69 ± 0.11 µM | 2.4 µM | 2.57 µM/min | Competitive | 89.4% | 208 to 210 °C | – | – | – | – | – | – | – | – | – | – | –
COc1ccc2cc([C@H](C)C(=O)Nc3ccc(S(=O)(=O)NC(C)=O)cc3)ccc2c1 [Conjugate 9, (S)-N-(4-(N-acetylsulfamoyl)phenyl)-2-(6-methoxynaphthalen-2-yl)propanamide] | 20.32 ± 0.12 µM | 2.61 µM | 0.66 µM/min | Mixed | 85.7% | 138 to 140 °C | – | – | – | – | – | – | – | – | – | – | –
COc1ccc2c(c1)c(CC(=O)O)c(C)n2C(=O)c1ccc(Cl)cc1 [Indomethacin, reference compound] | – | – | – | – | – | – | 1.81 ± 0.05 (−) mm | 20.1% | 2.61 ± 0.14 mm | 55.2% | 2.41 ± 0.09 mm | 86.8% | 2.14 ± 0.09 mm | – | – | – | –
COc1ccc2cc([C@H](C)C(=O)Nc3ccc(S(=O)(=O)NC(=N)N)cc3)ccc2c1 [Conjugate 10, (S)-N-(4-(N-carbamimidoylsulfamoyl)phenyl)-2-(6-methoxynaphthalen-2-yl)propanamide] | 5.06 ± 0.29 µM | 3.56 µM | 1.96 µM/min | Competitive | 89.1% | – | – | – | – | – | – | – | – | – | – | – | –
COc1ccc2cc([C@H](C)C(=O)O)ccc2c1 [Naproxen, reference compound] | – | – | – | – | – | – | 1.81 ± 0.06 (−) mm | 21.1% | 2.60 ± 0.13 mm | 46.3% | 2.53 ± 0.11 mm | 76.1% | 2.41 ± 0.12 mm | – | – | – | –
COc1ccc2cc([C@H](C)C(=O)Nc3ccc(S(=O)(=O)Nc4ncccn4)cc3)ccc2c1 [Conjugate 6, (S)-2-(6-methoxynaphthalen-2-yl)-N-(4-(N-(pyrimidin-2-yl)sulfamoyl)phenyl)propanamide] | 4.08 ± 0.1 µM | 5.58 µM | 0.363 µM/min | Mixed | 90.3% | 163 to 165 °C | – | – | – | – | – | – | – | – | – | – | –
COc1ccc2cc([C@H](C)C(=O)Nc3ccc(S(=O)(=O)Nc4nccs4)cc3)ccc2c1 [Conjugate 5, (S)-2-(6-methoxynaphthalen-2-yl)-N-(4-(N-(thiazol-2-yl)sulfamoyl)phenyl)propanamide] | 5.82 ± 0.28 µM | 5.05 µM | 0.714 µM/min | Competitive | 88.9% | 184 to 185 °C | 1.81 ± 0.05 (−) mm | 9.1% | 2.71 ± 0.09 mm | 43.3% | 2.57 ± 0.11 mm | 75.3% | 2.43 ± 0.08 mm | 61.3% | – | – | –
NC(N)=S [Thiourea, reference compound] | – | – | 18.61 µM/min | Competitive | 92.3% | – | – | – | – | – | – | – | – | – | 22.6 ± 0.23 µM | 18.2 µM | 2180 µM
COc1ccc2cc([C@H](C)C(=O)Nc3ccc(S(=O)(=O)Nc4onc(C)c4C)cc3)ccc2c1 [Conjugate 4, (S)-N-(4-(N-(3,4-dimethylisoxazol-5-yl)sulfamoyl)phenyl)-2-(6-methoxynaphthalen-2-yl)propanamide] | 25.63 ± 0.24 µM | – | – | – | 94.1% | 241 to 243 °C | 1.80 ± 0.04 (−) mm | 8.2% | 2.72 ± 0.12 mm | 45.5% | 2.53 ± 0.09 mm | 78.0% | 2.36 ± 0.11 mm | 64.5% | – | – | –
COc1ccc2cc([C@H](C)C(=O)Nc3ccc(S(=O)(=O)Nc4cc(C)on4)cc3)ccc2c1 [Conjugate 8, (S)-2-(6-methoxynaphthalen-2-yl)-N-(4-(N-(5-methylisoxazol-3-yl)sulfamoyl)phenyl)propanamide] | 29.64 ± 0.27 µM | – | – | – | 87.6% | 178 to 180 °C | 1.80 ± 0.08 (−) mm | 24.1% | 2.56 ± 0.14 mm | 47.0% | 2.51 ± 0.08 mm | 82.8% | 2.23 ± 0.12 mm | 75.4% | – | – | –
COc1ccc2cc([C@H](C)C(=O)Nc3ccc(S(=O)(=O)Nc4nccc(C)n4)cc3)ccc2c1 [Conjugate 7, (S)-2-(6-methoxynaphthalen-2-yl)-N-(4-(N-(4-methylpyrimidin-2-yl)sulfamoyl)phenyl)propanamide] | 16.57 ± 0.14 µM | 9.98 µM | 0.602 µM/min | Mixed | 84.3% | 160 to 162 °C | – | – | – | – | – | – | – | – | – | – | –
